Three compounds from patent US10947289B2, “Glyco-modified atrial natriuretic peptide” (priority 2013, dated 2021) can be followed below.

In one data set the target is T1, human GC-A (Homo sapiens, UniProt P16066).
T1 construct: expressed in transfected cells; host or cells: CHO cells
T1 sequence (P16066 33-1061): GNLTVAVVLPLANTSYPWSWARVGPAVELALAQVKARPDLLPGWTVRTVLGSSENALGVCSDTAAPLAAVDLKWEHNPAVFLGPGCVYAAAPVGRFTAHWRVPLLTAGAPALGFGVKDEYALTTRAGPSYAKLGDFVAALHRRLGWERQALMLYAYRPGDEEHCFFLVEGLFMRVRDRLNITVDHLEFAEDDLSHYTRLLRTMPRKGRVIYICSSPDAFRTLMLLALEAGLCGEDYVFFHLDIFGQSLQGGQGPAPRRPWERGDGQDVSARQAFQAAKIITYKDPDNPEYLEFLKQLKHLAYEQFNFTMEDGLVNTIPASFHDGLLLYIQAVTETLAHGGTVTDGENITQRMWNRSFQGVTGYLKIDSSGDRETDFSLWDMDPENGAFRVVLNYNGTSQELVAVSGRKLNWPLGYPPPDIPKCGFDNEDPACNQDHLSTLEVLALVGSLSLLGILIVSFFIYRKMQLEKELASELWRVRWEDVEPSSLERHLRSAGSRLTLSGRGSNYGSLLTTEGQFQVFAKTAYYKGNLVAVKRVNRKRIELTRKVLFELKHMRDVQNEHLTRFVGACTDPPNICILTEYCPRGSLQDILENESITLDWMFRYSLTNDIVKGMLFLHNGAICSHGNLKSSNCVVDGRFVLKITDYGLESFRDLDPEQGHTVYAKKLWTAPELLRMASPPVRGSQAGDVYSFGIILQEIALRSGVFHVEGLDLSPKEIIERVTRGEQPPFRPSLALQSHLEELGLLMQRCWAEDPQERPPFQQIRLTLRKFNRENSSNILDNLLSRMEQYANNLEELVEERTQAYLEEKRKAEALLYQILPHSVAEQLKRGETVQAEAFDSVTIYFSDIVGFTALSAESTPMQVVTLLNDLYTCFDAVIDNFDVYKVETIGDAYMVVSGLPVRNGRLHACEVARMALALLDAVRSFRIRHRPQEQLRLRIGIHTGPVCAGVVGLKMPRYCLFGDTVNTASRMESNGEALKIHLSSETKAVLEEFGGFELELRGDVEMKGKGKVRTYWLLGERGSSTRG
Put plainly: cGMP elevating activity in CHO/human GC-A cells (Test Example 1). The format is cell-based. An outline of the steps:
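cGMP in lysates was read by HTRF after a 15 min peptide exposure of GC-A-expressing CHO cells in a CO2 incubator, following 10 min room-temperature preincubation with 1.6 mM IBMX in KRB. T/C values were normalised between solvent wells (0) and 1 nM ANP wells (1).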

Data set [1] can be described thus: Detection of test substance in rat plasma by LC-MS/MS (Test Example 3). Type of data set: in vivo. The following applies: rat plasma, 100 nmol/kg i.v., LC-MS/MS; time at which the test substance was finally detected. An outline of the steps:
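Reported as final detection time: LC-MS/MS measured test substance in rat plasma collected from the jugular vein at 15, 30, 60, 90, 120, 180 and 240 min post-dose. Sample prep used a labelled hANP internal standard, acidic solvent, and sequential 50K then 3K ultrafiltration, keeping the 3K retentate.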

pEC50: −log10 of the molar value.

As usually defined, the pEC50 is the negative decadic logarithm of the EC50, by convention in mol/L. Higher therefore signals a low EC50. Take `CC[C@H](C)[C@@H]1NC(=O)[C@H](CCCNC(=N)N)NC(=O)[C@H](CC(=O)O)NC(=O)[C@H](CCSC)NC(=O)[C@H](CCCNC(=N)N)NC(=O)CNC(=O)CNC(=O)[C@H](Cc2ccccc2)NC(=O)[C@@H](NC(=O)[C@H](CO)NC(=O)[C@H](CO)NC(=O)[C@H](CCCNC(=N)N)NC(=O)[C@H](CCCNC(=N)N)NC(=O)[C@H](CC(C)C)NC(=O)[C@H](CO)NC(=O)CNC(=O)[C@H](CSC2CC(=O)N(CCC(=O)NCCO[C@@H]3O[C@H](CO)[C@@H](O[C@@H]4O[C@H](CO)[C@@H](O[C@@H]5O[C@H](CO[C@H]6O[C@H](CO)[C@@H](O)[C@H](O)[C@@H]6O[C@@H]6O[C@H](CO)[C@@H](O[C@@H]7O[C@H](CO[C@]8(C(=O)O)C[C@H](O)[C@@H](NC(C)=O)[C@H]([C@H](O)[C@H](O)CO)O8)[C@H](O)[C@H](O)[C@H]7O)[C@H](O)[C@H]6NC(C)=O)[C@@H](O)[C@H](O[C@H]6O[C@H](CO)[C@@H](O)[C@H](O)[C@@H]6O[C@@H]6O[C@H](CO)[C@@H](O[C@@H]7O[C@H](CO[C@]8(C(=O)O)C[C@H](O)[C@@H](NC(C)=O)[C@H]([C@H](O)[C@H](O)CO)O8)[C@H](O)[C@H](O)[C@H]7O)[C@H](O)[C@H]6NC(C)=O)[C@@H]5O)[C@H](O)[C@H]4NC(C)=O)[C@H](O)[C@H]3NC(C)=O)C2=O)NC(=O)CNC(=O)[C@H](CSC2CC(=O)N(CCC(=O)NCCO[C@@H]3O[C@H](CO)[C@@H](O[C@@H]4O[C@H](CO)[C@@H](O[C@@H]5O[C@H](CO[C@H]6O[C@H](CO)[C@@H](O)[C@H](O)[C@@H]6O[C@@H]6O[C@H](CO)[C@@H](O[C@@H]7O[C@H](CO[C@]8(C(=O)O)C[C@H](O)[C@@H](NC(C)=O)[C@H]([C@H](O)[C@H](O)CO)O8)[C@H](O)[C@H](O)[C@H]7O)[C@H](O)[C@H]6NC(C)=O)[C@@H](O)[C@H](O[C@H]6O[C@H](CO)[C@@H](O)[C@H](O)[C@@H]6O[C@@H]6O[C@H](CO)[C@@H](O[C@@H]7O[C@H](CO[C@]8(C(=O)O)C[C@H](O)[C@@H](NC(C)=O)[C@H]([C@H](O)[C@H](O)CO)O8)[C@H](O)[C@H](O)[C@H]7O)[C@H](O)[C@H]6NC(C)=O)[C@@H]5O)[C@H](O)[C@H]4NC(C)=O)[C@H](O)[C@H]3NC(C)=O)C2=O)NC(=O)CNC(=O)[C@H](CSC2CC(=O)N(CCC(=O)NCCO[C@@H]3O[C@H](CO)[C@@H](O[C@@H]4O[C@H](CO)[C@@H](O[C@@H]5O[C@H](CO[C@H]6O[C@H](CO)[C@@H](O)[C@H](O)[C@@H]6O[C@@H]6O[C@H](CO)[C@@H](O[C@@H]7O[C@H](CO[C@]8(C(=O)O)C[C@H](O)[C@@H](NC(C)=O)[C@H]([C@H](O)[C@H](O)CO)O8)[C@H](O)[C@H](O)[C@H]7O)[C@H](O)[C@H]6NC(C)=O)[C@@H](O)[C@H](O[C@H]6O[C@H](CO)[C@@H](O)[C@H](O)[C@@H]6O[C@@H]6O[C@H](CO)[C@@H](O[C@@H]7O[C@H](CO[C@]8(C(=O)O)C[C@H](O)[C@@H](NC(C)=O)[C@H]([C@H](O)[C@H](O)CO)O8)[C@H](O)[C@H](O)[C@H]7O)[C@H](O)[C@H]6NC(C)=O)[C@@H]5O)[C@H](O)[C@H]4NC(C)=O)[C@H](O)[C@H]3NC(C)=O)C2=O)NC(C)=O)CSSC[C@@H](C(=O)N[C@@H](CC(N)=O)C(=O)N[C@@H](CO)C(=O)N[C@@H](Cc2ccccc2)C(=O)N[C@@H](CCCNC(=N)N)C(=O)N[C@@H](Cc2ccc(O)cc2)C(=O)O)NC(=O)CNC(=O)[C@H](CC(C)C)NC(=O)CNC(=O)[C@H](CO)NC(=O)[C@H](CCC(N)=O)NC(=O)[C@H](C)NC(=O)CNC1=O` (stereo partly drawn) [Compound 2-15, [(SG-)Cys-Gly]3-hANP(1-28)]: the negative-log EC50 (pEC50) at human GC-A is 8.51. In data set [1], the “Maximum time of detection after administration” value (“Maximum time of detection” below) came to 1.5 h.

At human GC-A, `CC[C@H](C)[C@@H]1NC(=O)[C@H](CCCNC(=N)N)NC(=O)[C@H](CC(=O)O)NC(=O)[C@H](CCSC)NC(=O)[C@H](CCCNC(=N)N)NC(=O)CNC(=O)CNC(=O)[C@H](Cc2ccccc2)NC(=O)[C@@H](NC(=O)[C@H](CO)NC(=O)[C@H](CO)NC(=O)[C@H](CCCNC(=N)N)NC(=O)[C@H](CCCNC(=N)N)NC(=O)[C@H](CC(C)C)NC(=O)[C@H](CO)NC(=O)[C@H](CC(=O)N[C@@H]2O[C@H](CO)[C@@H](O[C@@H]3O[C@H](CO)[C@@H](O[C@@H]4O[C@H](CO[C@H]5O[C@H](CO)[C@@H](O)[C@H](O)[C@@H]5O[C@@H]5O[C@H](CO)[C@@H](O[C@@H]6O[C@H](CO[C@]7(C(=O)O)C[C@H](O)[C@@H](NC(C)=O)[C@H]([C@H](O)[C@H](O)CO)O7)[C@H](O)[C@H](O)[C@H]6O)[C@H](O)[C@H]5NC(C)=O)[C@@H](O)[C@H](O[C@H]5O[C@H](CO)[C@@H](O)[C@H](O)[C@@H]5O[C@@H]5O[C@H](CO)[C@@H](O[C@@H]6O[C@H](CO[C@]7(C(=O)O)C[C@H](O)[C@@H](NC(C)=O)[C@H]([C@H](O)[C@H](O)CO)O7)[C@H](O)[C@H](O)[C@H]6O)[C@H](O)[C@H]5NC(C)=O)[C@@H]4O)[C@H](O)[C@H]3NC(C)=O)[C@H](O)[C@H]2NC(C)=O)NC(=O)CCOCCOCCOCCOCCNC(=O)CO[C@@H]2O[C@H](CO)[C@@H](O[C@@H]3O[C@H](CO)[C@@H](O[C@@H]4O[C@H](CO[C@H]5O[C@H](CO)[C@@H](O)[C@H](O)[C@@H]5O[C@@H]5O[C@H](CO)[C@@H](O[C@@H]6O[C@H](CO[C@]7(C(=O)O)C[C@H](O)[C@@H](NC(C)=O)[C@H]([C@H](O)[C@H](O)CO)O7)[C@H](O)[C@H](O)[C@H]6O)[C@H](O)[C@H]5NC(C)=O)[C@@H](O)[C@H](O[C@H]5O[C@H](CO)[C@@H](O)[C@H](O)[C@@H]5O[C@@H]5O[C@H](CO)[C@@H](O[C@@H]6O[C@H](CO[C@]7(C(=O)O)C[C@H](O)[C@@H](NC(C)=O)[C@H]([C@H](O)[C@H](O)CO)O7)[C@H](O)[C@H](O)[C@H]6O)[C@H](O)[C@H]5NC(C)=O)[C@@H]4O)[C@H](O)[C@H]3NC(C)=O)[C@H](O)[C@H]2NC(C)=O)CSSC[C@@H](C(=O)N[C@@H](CC(N)=O)C(=O)N[C@@H](CO)C(=O)N[C@@H](Cc2ccccc2)C(=O)N[C@@H](CCCNC(=N)N)C(=O)N[C@@H](Cc2ccc(O)cc2)C(=O)O)NC(=O)CNC(=O)[C@H](CC(C)C)NC(=O)CNC(=O)[C@H](CO)NC(=O)[C@H](CCC(N)=O)NC(=O)[C@H](C)NC(=O)CNC1=O` [Compound 2-16, SG-PEG(3)-(SG-)Asn-hANP(1-28)] had a pEC50 of 9.01. Besides, the “Maximum time of detection” value in data set [1] stood at 2 h.

Compound `CC[C@H](C)[C@@H]1NC(=O)[C@H](CCCNC(=N)N)NC(=O)[C@H](CC(=O)O)NC(=O)[C@H](CCSC)NC(=O)[C@H](CCCNC(=N)N)NC(=O)CNC(=O)CNC(=O)[C@H](Cc2ccccc2)NC(=O)[C@@H](NC(=O)[C@H](CO)NC(=O)[C@H](CO)NC(=O)[C@H](CCCNC(=N)N)NC(=O)[C@H](CCCNC(=N)N)NC(=O)[C@H](CC(C)C)NC(=O)[C@H](CO)NC(=O)CCSCC(=O)NCCO[C@@H]2O[C@H](CO)[C@@H](O[C@@H]3O[C@H](CO)[C@@H](O[C@@H]4O[C@H](CO[C@H]5O[C@H](CO)[C@@H](O)[C@H](O)[C@@H]5O[C@@H]5O[C@H](CO)[C@@H](O[C@@H]6O[C@H](CO[C@]7(C(=O)O)C[C@H](O)[C@@H](NC(C)=O)[C@H]([C@H](O)[C@H](O)CO)O7)[C@H](O)[C@H](O)[C@H]6O)[C@H](O)[C@H]5NC(C)=O)[C@@H](O)[C@H](O[C@H]5O[C@H](CO)[C@@H](O)[C@H](O)[C@@H]5O[C@@H]5O[C@H](CO)[C@@H](O[C@@H]6O[C@H](CO[C@]7(C(=O)O)C[C@H](O)[C@@H](NC(C)=O)[C@H]([C@H](O)[C@H](O)CO)O7)[C@H](O)[C@H](O)[C@H]6O)[C@H](O)[C@H]5NC(C)=O)[C@@H]4O)[C@H](O)[C@H]3NC(C)=O)[C@H](O)[C@H]2NC(C)=O)CSSC[C@@H](C(=O)N[C@@H](CC(N)=O)C(=O)N[C@@H](CO)C(=O)N[C@@H](Cc2ccccc2)C(=O)N[C@@H](CCCNC(=N)N)C(=O)N[C@@H](Cc2ccc(O)cc2)C(=O)O)NC(=O)CNC(=O)[C@H](CC(C)C)NC(=O)CNC(=O)[C@H](CO)NC(=O)[C@H](CCC(N)=O)NC(=O)[C@H](C)NC(=O)CNC1=O` [Compound 2-25, SG-thioacetamide-hANP(1-28)] had a pEC50 on human GC-A of 10.27. In addition, the “Maximum time of detection” value in data set [1] came to 2 h.
